The target of one test is T1, human TRPM8 (Homo sapiens, UniProt Q7Z2W7).
T1 construct: expressed in transfected cells; host or cells: Chinese hamster ovary (CHO) cells, T-REx tetracycline-inducible expression system (Invitrogen); co-transfected with pcDNA3.1 aequorin
The test can be described thus: Luminescence readout assay for measuring intracellular calcium (aequorin, CHO cells expressing human TRPM8; icilin, L-menthol or cold activation). It is filed as cell-based. The note with it: CHO cells expressing human TRPM8, icilin activation (1 μM), aequorin luminescence; read-out: hTRPM8 IC50. The method, boiled down: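 Activation was by 1 μM icilin, 100 μM L-menthol (test compound 2.5 min ahead) or cold buffer below 10° C (compound 1 min ahead). Calcium rise measured as aequorin luminescence in CHO cells with tetracycline-inducible human TRPM8.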

For test [1], the system named is icilin induced wet-dog shakes. Put plainly: Inhibition of icilin induced shaking (wet-dog shakes) in rats. The note with it: po, rat. It is filed as in vivo, male Sprague Dawley rats. Here is the method:
Inhibition of Icilin Induced Shaking in Rats
Example compounds at doses ranging from 0.01 to 3 mg/kg (p.o, suspended in 5% Tween80/Oralplus or suspended in 2% HPMC-1% Tween-80 pH2.2 with MSA, 5 mL/kg) can be administered to male Sprague Dawley rats (200-300 g, Harlan, n=6-8/treatment) 2 h before icilin to assess the ability to block the spontaneous wet-dog shake phenomena induced by icilin (i.p., suspended in 100% PEG400 at 0.5 mg/kg, 1 mL/kg or p.o., suspended in 2% HPMC-1% Tween-80 at 3 mg/kg, 2.5 mL/kg). Spontaneous wet-dog shakes may be counted manually by two blinded observers or using LABORAS automation (Metris) for 30 min post-icilin. The synthesized and prophetic example compounds may be measured using these procedures and will be found to reduce the spontaneous wet dog shake phenomena induced by icilin.

T1 sequence (Q7Z2W7 whole entry): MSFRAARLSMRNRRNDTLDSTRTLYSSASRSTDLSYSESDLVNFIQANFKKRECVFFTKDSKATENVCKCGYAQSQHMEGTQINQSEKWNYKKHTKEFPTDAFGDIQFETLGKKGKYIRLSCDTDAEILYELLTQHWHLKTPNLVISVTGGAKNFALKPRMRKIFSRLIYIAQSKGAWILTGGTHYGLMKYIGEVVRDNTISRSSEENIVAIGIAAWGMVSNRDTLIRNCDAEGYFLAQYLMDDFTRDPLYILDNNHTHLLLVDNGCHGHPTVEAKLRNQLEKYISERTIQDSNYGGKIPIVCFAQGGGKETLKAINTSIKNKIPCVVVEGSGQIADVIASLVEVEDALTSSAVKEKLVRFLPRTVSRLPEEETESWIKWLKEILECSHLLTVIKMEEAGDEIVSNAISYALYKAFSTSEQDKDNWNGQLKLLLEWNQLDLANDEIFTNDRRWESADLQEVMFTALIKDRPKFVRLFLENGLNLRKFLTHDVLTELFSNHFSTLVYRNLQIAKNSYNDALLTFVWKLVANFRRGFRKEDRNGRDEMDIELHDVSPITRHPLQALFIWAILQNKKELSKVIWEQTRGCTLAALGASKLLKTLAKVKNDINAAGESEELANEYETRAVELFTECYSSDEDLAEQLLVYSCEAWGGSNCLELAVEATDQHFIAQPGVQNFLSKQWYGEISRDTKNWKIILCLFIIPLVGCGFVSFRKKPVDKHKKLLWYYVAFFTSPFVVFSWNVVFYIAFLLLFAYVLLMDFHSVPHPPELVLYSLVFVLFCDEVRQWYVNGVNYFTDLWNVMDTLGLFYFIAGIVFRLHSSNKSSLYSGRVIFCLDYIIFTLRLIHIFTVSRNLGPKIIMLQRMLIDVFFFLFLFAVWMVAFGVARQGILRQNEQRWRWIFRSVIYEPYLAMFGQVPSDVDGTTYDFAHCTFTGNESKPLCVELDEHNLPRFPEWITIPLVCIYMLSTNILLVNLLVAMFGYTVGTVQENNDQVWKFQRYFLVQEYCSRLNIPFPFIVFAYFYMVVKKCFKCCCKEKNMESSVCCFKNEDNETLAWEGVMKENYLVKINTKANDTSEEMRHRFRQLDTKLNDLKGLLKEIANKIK

Take `O=C(O)c1ccc(C(=O)N[C@]2(c3ccc(C(F)(F)F)c(F)c3)CCOc3cccnc32)nc1` [Example 313, (S)-6-((4-(3-fluoro-4-(trifluoro-methyl)phenyl)-3,4-dihydro-2H-pyrano[3,2-b]pyridin-4-yl)carbamoyl) nicotinic acid]: on human TRPM8, the IC50 was 14 nM. This molecule gave an inhibition in vivo at 1 mg/kg in test [1] of 99%.
In the case of `O=C(N[C@]1(c2ccc(OC(F)(F)F)c(F)c2)CCOc2cccnc21)c1ccc(-c2noc(=O)[nH]2)cn1` [Example 283, (S)—N-(4-(3-fluoro-4-(trifluoromethoxy)phenyl)-3,4-dihydro-2H-pyrano[3,2-b]pyridin-4-yl)-5-(5-oxo-4,5-dihydro-1,2,4-oxadiazol-3-yl)picolinamide], the IC50 on human TRPM8 came out at 44 nM. The molecule also had an inhibition in vivo at 1 mg/kg in test [1] of 78%.
As to `O=C(N[C@]1(c2ccc(OC(F)(F)F)cc2)CCOc2cccnc21)c1ccc(=O)[nH]c1` (single isomer, unassigned) [Example 58], the IC50 on human TRPM8 stood at 21 nM. Moreover, at 1 mg/kg the inhibition in vivo in test [1] was 97%.
In the same order, the values of `O=C(O)c1ccc(C(=O)N[C@]2(c3ccc(OC(F)(F)F)c(F)c3)CCOc3cccnc32)nc1` [Example 75] are 14 nM and 99%.
For `O=C(N[C@]1(c2ccc(OC(F)(F)F)c(F)c2)CCOc2cccnc21)c1ccc2[nH]c(=O)oc2c1` (single isomer, unassigned) [Example 21] the same measures were 7 nM and 98%.
Regarding `O=C(O)c1ccc(C(=O)N[C@]2(c3ccc(Cl)c(Cl)c3)CCOc3cccnc32)nc1` [Example 318, (S)-6-((4-(3,4-dichloro-phenyl)-3,4-dihydro-2H-pyrano[3,2-b]pyridin-4-yl)carbamoyl) nicotinic acid], the IC50 at human TRPM8 came out at 25 nM. The molecule also came in with an inhibition in vivo at 1 mg/kg in test [1] of 86%.
As to `O=C(N[C@]1(c2ccc(OC(F)(F)F)c(F)c2)CCOc2cccnc21)c1c[nH]c(=O)cn1` [Example 50, (S)-N-(4-(3-fluoro-4-(trifluoromethoxy)phenyl)-3,4-dihydro-2H-pyrano[3,2-b]pyridin-4-yl)-5-oxo-4,5-dihydropyrazine-2-carboxamide], at human TRPM8, the IC50 was found to be 8 nM. In test [1], this molecule came in with an inhibition in vivo at 1 mg/kg of 67%.
As to `Cc1nc(C(=O)N[C@]2(c3ccc(OC(F)(F)F)c(F)c3)CCOc3cccnc32)ccc1C(=O)O` [Example 310, (S)-6-((4-(3-fluoro-4-(trifluoro-methoxy)phenyl)-3,4-dihydro-2H-pyrano[3,2-b]pyridin-4-yl)carbamoyl)-2-methylnicotinic acid], on human TRPM8, the IC50 was 8 nM. The molecule further displayed an inhibition in vivo at 1 mg/kg in test [1] of 98%.
With `CCc1cc(C(=O)N[C@]2(c3ccc(OC(F)(F)F)c(F)c3)CCOc3cccnc32)ccc1C(=O)O` [Example 291, (S)-2-ethyl-4-((4-(3-fluoro-4-(trifluoromethoxy)phenyl)-3,4-dihydro-2H-pyrano[3,2-b]pyridin-4-yl)carbamoyl)benzoic acid], the IC50 at human TRPM8 was 15 nM. Further, testing at 1 mg/kg in test [1] gave an inhibition in vivo of 97%.
For the molecule `O=C(N[C@]1(c2ccc(OC(F)(F)F)c(F)c2)CCOc2cccnc21)c1ccc(=O)[nH]c1` [Example 59, (S)—N-(4-(3-fluoro-4-(trifluoromethoxy)phenyl)-3,4-dihydro-2H-pyrano[3,2-b]pyridin-4-yl)-6-oxo-1,6-dihydropyridine-3-carboxamide], the IC50 on human TRPM8 came out at 13 nM. The molecule further showed an inhibition in vivo at 1 mg/kg in test [1] of 99%.
As to `O=C(N[C@]1(c2ccc(C(F)(F)F)cc2)CCOc2cccnc21)c1ccc2oc(=O)[nH]c2c1` [Example 61, (S)-2-oxo-N-(4-(4-(trifluoromethyl)phenyl)-3,4-dihydro-2H-pyrano[3,2-b]pyridin-4-yl)-2,3-dihydrobenzo[d]oxazole-5-carboxamide], the IC50 at human TRPM8 was 6 nM. For the same molecule, in test [1], 1 mg/kg produced 80% inhibition in vivo.
As to `O=C(Nc1ncccn1)N[C@]1(c2ccc(OC(F)(F)F)c(F)c2)CCOc2cccnc21` [Example 83, (S)-1-(4-(3-fluoro-4-(trifluoromethoxy)phenyl)-3,4-dihydro-2H-pyrano[3,2-b]pyridin-4-yl)-3-(pyrimidin-2-yl)urea], on human TRPM8, the 50% inhibitory concentration (IC50) is 28 nM. For the same molecule, testing at 1 mg/kg in test [1] gave an inhibition in vivo of 59%.
For the molecule `O=C(N[C@]1(c2ccc(C(F)(F)F)c(F)c2)CCOc2cccnc21)c1ccc(=O)[nH]c1` [Example 170, (S)-N-(4-(3-fluoro-4-(trifluoromethyl)phenyl)-3,4-dihydro-2H-pyrano[3,2-b]pyridin-4-yl)-6-oxo-1,6-dihydropyridine-3-carboxamide], the IC50 on human TRPM8 is 21 nM. In test [1], this molecule came in with an inhibition in vivo at 1 mg/kg of 90%.
Consider `Cc1cc(C(=O)N[C@]2(c3ccc(OC(F)(F)F)cc3)CCOc3cccnc32)ccc1C(=O)O` [Example 319, (S)-2-methyl-4-((4-(4-(trifluoro-methoxy)phenyl)-3,4-dihydro-2H-pyrano[3,2-b]pyridin-4-yl)carbamoyl) benzoic acid], for which the IC50 on human TRPM8 is 15 nM. The inhibition in vivo at 0.3 mg/kg in test [1] (dose 0.3 mg/kg) was found to be 75%.
For the molecule `O=C(Nc1cncnc1)N[C@]1(c2ccc(OC(F)(F)F)c(F)c2)CCOc2cccnc21` [Example 85, (S)-1-(4-(3-fluoro-4-(trifluoromethoxy)phenyl)-3,4-dihydro-2H-pyrano[3,2-b]pyridin-4-yl)-3-(pyrimidin-5-yl)urea], the IC50 on human TRPM8 was found to be 12 nM. Moreover, testing at 1 mg/kg in test [1] gave an inhibition in vivo of 72%.
With `O=C(O)c1ccc(C(=O)N[C@]2(c3ccc(C(F)(F)F)cc3)CCOc3cccnc32)nc1` [Example 326, (S)-6-((4-(4-(trifluoro-methyl)phenyl)-3,4-dihydro-2H-pyrano[3,2-b]pyridin-4-yl)carbamoyl) nicotinic acid], the IC50 at human TRPM8 amounted to 33 nM. Moreover, in test [1], the inhibition in vivo at 1 mg/kg worked out at 98%.
With `O=C(N[C@]1(c2ccc(OC(F)(F)F)c(F)c2)CCOc2cccnc21)c1ccc(CO)cc1` [Example 158, (S)—N-(4-(3-fluoro-4-(trifluoromethoxy)phenyl)-3,4-dihydro-2H-pyrano[3,2-b]pyridin-4-yl)-4-(hydroxymethyl)benzamide], the IC50 at human TRPM8 worked out at 6 nM. Also, in test [1], the inhibition in vivo at 1 mg/kg came to 92%.
For the molecule `O=C(O)c1ccc(C(=O)N[C@]2(c3ccc(OC(F)(F)F)c(F)c3)CCOc3cccnc32)cc1` [Example 204, (S)-4-((4-(3-fluoro-4-(trifluoromethoxy)phenyl)-3,4-dihydro-2H-pyrano[3,2-b]pyridin-4-yl)carbamoyl) benzoic acid], the IC50 on human TRPM8 came to 7 nM. In test [1], this molecule displayed an inhibition in vivo at 1 mg/kg of 98%.
For `Nc1cc(C(=O)N[C@]2(c3ccc(OC(F)(F)F)c(F)c3)CCOc3cccnc32)ccc1C(=O)O` [Example 321, (S)-2-amino-4-((4-(3-fluoro-4-(trifluoro-methoxy)phenyl)-3,4-dihydro-2H-pyrano[3,2-b]pyridin-4-yl)carbamoyl) benzoic acid] the same measures were 12 nM and 95%.
For `O=C(O)c1ccc(C(=O)N[C@]2(c3ccc(OC(F)(F)F)cc3)CCOc3cccnc32)nc1` [Example 327, (S)-6-((4-(4-(trifluoro-methoxy)phenyl)-3,4-dihydro-2H-pyrano[3,2-b]pyridin-4-yl)carbamoyl) nicotinic acid] the same measures were 23 nM and 93%.
In the same order, the values of `C=Cc1cc(C(=O)N[C@]2(c3ccc(OC(F)(F)F)c(F)c3)CCOc3cccnc32)ccc1C(=O)O` [Example 289, (S)-4-((4-(3-fluoro-4-(trifluoromethoxy)phenyl)-3,4-dihydro-2H-pyrano[3,2-b]pyridin-4-yl)carbamoyl)-2-vinylbenzoic acid] are 18 nM and 93%.
Consider `COc1cc(C(=O)O)ccc1C(=O)N[C@]1(c2ccc(OC(F)(F)F)c(F)c2)CCOc2cccnc21` [Example 314, (S)-4-((4-(3-fluoro-4-(trifluoromethoxy)phenyl)-3,4-dihydro-2H-pyrano[3,2-b]pyridin-4-yl)carbamoyl)-3-methoxybenzoic acid], for which the IC50 at human TRPM8 amounted to 4 nM. Further, the inhibition in vivo at 1 mg/kg in test [1] amounted to 99%.
Regarding `N#Cc1ccc(-c2ccc([C@@]3(NC(=O)c4ccc5oc(=O)[nH]c5c4)CCOc4cccnc43)cc2)cc1` [Example 155, (S)—N-(4-(4′-cyano-[1,1′-biphenyl]-4-yl)-3,4-dihydro-2H-pyrano[3,2-b]pyridin-4-yl)-2-oxo-2,3-dihydrobenzo[d]oxazole-5-carboxamide 2,2,2-trifluoroacetate], the IC50 at human TRPM8 was 16 nM. Further, 1 mg/kg produced 60% inhibition in vivo in test [1].
Regarding `Cc1cc(C(=O)N[C@]2(c3ccc(OC(F)(F)F)c(F)c3)CCOc3cccnc32)ccc1C(=O)O` [Example 332, (S)-4-((4-(3-fluoro-4-(trifluoromethoxy)phenyl)-3,4-dihydro-2H-pyrano[3,2-b]pyridin-4-yl)carbamoyl)-2-methylbenzoic acid], at human TRPM8, the IC50 was determined as 16 nM. The molecule further registered an inhibition in vivo at 1 mg/kg in test [1] of 99%.

These data come from US20150031668A1, “CHROMAN DERIVATIVES AS TRPM8 INHIBITORS” (AMGEN INC., priority 2013, published 2015).
